The source of these data is article PMC7999199, “Novel Cationic Meso-Arylporphyrins and Their Antiviral Activity against HSV-1” (Pharmaceuticals, 2021).

Like-named read-outs stand apart in the source and are kept apart here.

Data set [1] is described as follows: Vero cell viability, MTT test, 72 h. The class given is cell-based, African green monkey. The following applies: African green monkey, Vero cells, MTT; for viability at 72 h, 0.39 µM: 0.39 µM/L; for viability at 72 h, 0.39 µM / viability at 72 h, 0.78 µM / viability at 72 h, 1.56 µM / viability at 72 h, 3.13 µM / viability at 72 h, 6.25 µM / viability at 72 h, 12.5 µM / viability at 72 h, 25 µM / viability at 72 h, 50 µM / viability at 72 h, 100 µM: Vero, 3 days, read-out: Viability % ±s.d.; for viability at 72 h, 0.78 µM: 0.78 µM/L; for viability at 72 h, 1.56 µM: 1.56 µM/L; for viability at 72 h, 3.13 µM: 3.13 µM/L; for viability at 72 h, 6.25 µM: 6.25 µM/L; for viability at 72 h, 12.5 µM: 12.50 µM/L; for viability at 72 h, 25 µM: 25 µM/L; for viability at 72 h, 50 µM: 50 µM/L; for viability at 72 h, 100 µM: 100 µM/L; for CC50 at 72 h: dissolved in PBS. The protocol:
(§1) Before testing antiviral activity, the effect of porphyrins dissolved in PBS and Pluronic F-127 on the viability of Vero cells was evaluated. Cells were incubated for 72 h using different concentrations of porphyrins (0.39–100 μM). Viability was assessed using the MTT test (Figure S13, Table S1, Supplementary Information). The viability of Vero cells depends on the porphyrins’ structure and formulation.
(§2) Cell viability was assessed by MTT reduction assay. Briefly, confluent monolayer Vero cells in 96-well plates (15000 cells/well) were incubated for 72 h with different concentrations of the compounds ranging from 0.39 µM to 100 µM in DMEM-1% FCS at 36.8 °C in 5% CO2 atmosphere. Next, cells were incubated for 1 h with 1.0 mg/mL of 3-(4,5-dimethylthiazol-2-y1)-2,5-diphenyltetrazolium bromide (MTT, PanEco, Moscow, Russia) at 36.8 °C, and then the solution was removed, and precipitated formazan was diluted in DMSO (PanEco, Moscow, Russia). The solution was read on a spectrophotometer at 540 nm. For each concentration, the average cell viability was calculated from the data of three experiments with three replicates each and was expressed as a percentage compared to the untreated cells (100%).
(§3) Table s1. Vero cell viability after exposure to 3a, 3b, TMEPyP compounds dissolved in PBS and Pluronic F-127. Different concen-
(§4) trations of compounds were applied to the cell monolayer and after incubation for 3 days, the number of living cells was calculated
(§5) in the MTT test. Each point represents the mean ± standard deviation of three experiments with […] each. n.d. –not done.
(§6) Compound Concentration, µM/L Viability % ±s.d.

Another data set deals with Vero cells. As to the kind of experiment: Vero cell viability, MTT test, 72 h. The class given is cell-based, African green monkey. The following applies: Vero cells; for CC50: Pluronic F-127 (F127) micellar formulation, MTT, 72 h. The protocol: as §1, §2, §3, §4, §5, §6
The test system of data set [2] is HSV-1 replication in Vero cells. As to the kind of experiment: Influence of the compounds on HSV-1 virus yield during infection of Vero cells (early/late replication stages). In kind it is cell-based, herpes simplex virus type 1. Conditions: for stages of HSV-1 replication affected: Vero cells, MOI 0.1; for effect on HSV-1 replication: simultaneous addition with the virus. The protocol:
Porphyrin’s antiviral action was then determined in terms of their effect on the HSV-1 replication stages in Vero cells. A two-part experiment was conducted to evaluate the influence of the obtained compounds on the early or late stages of replication (Figure 6). First, the effect of porphyrins on the initial stages of reproduction was estimated. Thus, HSV-1 at MOI 0.1 was adsorbed on Vero cells in a medium containing the studied porphyrin; then the cell monolayers were washed from the nonadsorbed virus, and porphyrins of the same concentration were introduced into the plate (1) (Vero Cells + HSV-1 + Porphyrin, left arrow. Figure 6), or the cell monolayers were washed from the nonadsorbed virus, and the medium without the test compound was introduced into the cell monolayers microwell plate (2) (Porphyrin + HSV-1 + Porphyrin medium, right arrow. Figure 6).
The influence of porphyrin antiviral activity on the HSV-1 postadsorption stages was simultaneously evaluated in this experiment. The studied compounds were introduced after HSV-1 adsorption on Vero cells and washing of nonadsorbed virus particles (3) (Vero Cells +HSV-1, left arrow. Figure 6) or, after virus adsorption and nonadsorbed virus particles washing, only the medium was introduced (control of virus reproduction) (4) (Vero Cells +HSV-1, right arrow. Figure 6). After the formation of a pronounced cytopathic effect of the virus in control cultures (48 h of cultivation), the virus infection activity of all the samples was determined by titration in a Vero cell culture (Figure 7).
Four variants were used to test compound efficiency in controlling development of infection in Vero cells. The Vero cells were seeded in 24-well plate in 1 mL of DMEM-5% FCS. (1) The cell monolayers were treated simultaneously with HSV-1 (MOI 0.1) in DMEM-1% FCS (900 µL) and investigated compounds in DMEM-1% FCS (100 µL) for 2 h at 36.8 °C in 5% CO2 atmosphere; then the cell monolayers were washed from the nonadsorbed virus and treated with 900 µL of DMEM-1%FCS and the same concentrations of compounds (100 µL). (2) The cell monolayers were treated simultaneously with HSV-1 (MOI 0.1) DMEM-1% FCS (900 µL) and compounds DMEM-1%FCS (100 µL) for 2 h at 36.8 °C in 5% CO2 atmosphere, and then the cell monolayers were washed from the nonadsorbed virus, after which only DMEM-1% FCS (1 mL) was added. (3) The cell monolayers were treated with HSV-1 (MOI 0.1) DMEM-1% FCS (900 µL) and DMEM-1% FCS (100 µL) for 2 h at 36.8 °C in 5% CO2 atmosphere and washed from the nonadsorbed virus; then DMEM-1% FCS (900 µL) and the same compounds in DMEM-1% FCS (100 µL) were added. (4) Control: the cell monolayers were treated with HSV-1 (MOI 0.1) in DMEM-1% FCS (900 µL), and DMEM-1% FCS (100 µL) was added for 2 h at 36.8 °C in 5% CO2 atmosphere and washed from the nonadsorbed virus, and then DMEM-1% FCS (1 mL) was added. In all variants, the treated cells were then incubated at 36.8 °C in 5% CO2 atmosphere.
After the development of a cytopathic effect in control cultures (HSV-1 + medium, 48 h), the virus content was determined in samples of the culture medium by applying ten-fold dilutions (100 µL) on a monolayers of Vero cells in wells of 96-well plates. After three days, virus titers were counted, and the percentage of inhibition regarding the titer of the virus in the control, which was taken as 100%, was determined. The results were presented as the average of three experiments of four replays.
Figure 7 Inhibitory effect of porphyrins on the HSV-1 replication. The Vero cells were treated with compounds 3a (100 µM) (a), 3b (12 µM and 6 µM) (b) and TMePyP (50 µM, 25 µM and 12.5 µM) (c) simultaneously with HSV-1 (MI 0.1) or after HSV-1 (MI 0.1) adsorption. The results are presented as the percentage of the virus titer with porphyrin relative to its titer in the control (without porphyrin), which was taken as 100%. Each bar represents the mean ± deviation. […]

Turning to `C[n+]1ccc(-c2c3nc(c(-c4cc[n+](C)cc4)c4ccc([nH]4)c(-c4cc[n+](C)cc4)c4nc(c(-c5cc[n+](C)cc5)c5ccc2[nH]5)C=C4)C=C3)cc1` [TMePyP, 5,10,15,20-tetrakis(1-methyl-4-pyridinio)porphyrin tetraiodide, reference compound], in data set [1] (+F127 (Pluronic F-127)), the viability at 72 h, 0.39 µM stood at 82.9 ± 5.4%; the viability at 72 h, 0.78 µM was 79.9 ± 2.3%; the viability at 72 h, 1.56 µM came out at 90.2 ± 9.7%; the viability at 72 h, 3.13 µM was determined as 95.2 ± 6%. In addition, in data set [1] (+F127 (Pluronic F-127)), the viability at 72 h, 6.25 µM was 90.4 ± 2.7%; the viability at 72 h, 12.5 µM was 83 ± 8.6%; the viability at 72 h, 25 µM was 95.2 ± 3.2%; the viability at 72 h, 50 µM was 114 ± 6.2%. The viability at 72 h, 100 µM in data set [1] (+F127 (Pluronic F-127)) was 104 ± 1.2%. Moreover, in data set [1] (-F127 (PBS)), the viability at 72 h, 3.13 µM is 101 ± 5%; the viability at 72 h, 6.25 µM was determined as 98.5 ± 5%; the viability at 72 h, 12.5 µM was found to be 97.4 ± 4.6%; the viability at 72 h, 25 µM amounted to 95.3 ± 5.3%. Besides, in data set [1] (-F127 (PBS)), the viability at 72 h, 50 µM was determined as 93.7 ± 5.5% and the viability at 72 h, 100 µM was determined as 89.6 ± 6.8%. In addition, the CC50 at 72 h in data set [1] was greater than 100 µM. In the data set with Vero cells, the CC50 was greater than 100 µM. The “stages of HSV-1 replication affected” value in data set [2] is “affected both the initial and late stages of virus replication”. Also, in data set [2] (introduced at the stage of virus adsorption, 12 μM), the “effect on HSV-1 reproduction” value is on record as “did not suppress the HSV-1 reproduction”. Besides, the “effect on HSV-1 replication” value in data set [2] (25 μM) is “completely suppressed its replication”. Moreover, the “effect on HSV-1 replication” value in data set [2] (50 μM) is “completely suppressed its replication”.
For the molecule `O=C(CC[n+]1ccccc1)Oc1ccc(-c2c3nc(c(-c4ccc(OC(=O)CC[n+]5ccccc5)cc4)c4ccc([nH]4)c(-c4ccc(OC(=O)CC[n+]5ccccc5)cc4)c4nc(c(-c5ccc(OC(=O)CC[n+]6ccccc6)cc5)c5ccc2[nH]5)C=C4)C=C3)cc1` [3a], in data set [1] (+F127 (Pluronic F-127)), the viability at 72 h, 0.39 µM was found to be 93 ± 4.6%; the viability at 72 h, 0.78 µM is 99.2 ± 4.2%; the viability at 72 h, 1.56 µM amounted to 95.6 ± 4.2%; the viability at 72 h, 3.13 µM turned out to be 90.8 ± 2.3%. Further, in data set [1] (+F127 (Pluronic F-127)), the viability at 72 h, 6.25 µM was 90.3 ± 7.8%; the viability at 72 h, 12.5 µM turned out to be 91.7 ± 2.8%; the viability at 72 h, 25 µM came to 89.1 ± 4.1%; the viability at 72 h, 50 µM is 92.9 ± 2%. The viability at 72 h, 100 µM in data set [1] (+F127 (Pluronic F-127)) was 80.4 ± 1.8%. In data set [1] (-F127 (PBS)), the viability at 72 h, 0.39 µM came to 94.6 ± 2.9%; the viability at 72 h, 0.78 µM stood at 102 ± 4.2%; the viability at 72 h, 1.56 µM stood at 108 ± 15.4%; the viability at 72 h, 3.13 µM worked out at 106 ± 4.5%. Moreover, in data set [1] (-F127 (PBS)), the viability at 72 h, 6.25 µM is 105 ± 8.7%; the viability at 72 h, 12.5 µM was determined as 94.7 ± 5.1%; the viability at 72 h, 25 µM was 90.9 ± 10%; the viability at 72 h, 50 µM came to 91.9 ± 2.2%. Besides, the viability at 72 h, 100 µM in data set [1] (-F127 (PBS)) was determined as 76.8 ± 6.9%. Further, the cytotoxic concentration (CC50) at 72 h in data set [1] is greater than 100 µM. The molecule also registered a half-maximal cytotoxic concentration (CC50) in the data set with Vero cells greater than 100 µM. For the same molecule, in the data set on Vero cells (used to choose concentrations for the virucidal test), the toxic concentration is greater than 100 µM. Moreover, in data set [2], the “stages of HSV-1 replication affected” value is “acts on both the initial and postadsorption stages of virus replication”. In addition, the “effect on HSV-1 reproduction” value in data set [2] (compound only at the cell infection stage (3a + HSV-1 + media), 100 µM, MOI 0.1, 48 h) is “did not significantly suppress the reproduction of the virus”. Moreover, in data set [2] (compound with virus and after washing (3a + HSV-1 + 3a) or post-infection (HSV-1 + 3a), 100 µM, MOI 0.1, 48 h), the “effect on HSV-1 reproduction” value is listed as “suppressed the reproduction of the virus”.
